According to patent US6806269B1, “2-Amino-benzoxazinones for the treatment of herpes simplex virus” (G. D. Searle & Cop, priority 1999, dated 2004):
Like-named read-outs stand apart in the source and are kept apart here.

Tests used:
[1] = molecular target: T1, HSV-1 protease (assemblin) (Human herpesvirus 1, UniProt P10210); assay: Enzymatic assay for HSV-1 protease (assemblin) inhibition (FP assay / HPLC assay); assay type: biochemical
T1 construct: encoding residues 1-288 of HSV-1 UL26 open reading frame and 32 heterologous amino acid; 6xHis (N); made in house
T1 sequence (P10210 1-288): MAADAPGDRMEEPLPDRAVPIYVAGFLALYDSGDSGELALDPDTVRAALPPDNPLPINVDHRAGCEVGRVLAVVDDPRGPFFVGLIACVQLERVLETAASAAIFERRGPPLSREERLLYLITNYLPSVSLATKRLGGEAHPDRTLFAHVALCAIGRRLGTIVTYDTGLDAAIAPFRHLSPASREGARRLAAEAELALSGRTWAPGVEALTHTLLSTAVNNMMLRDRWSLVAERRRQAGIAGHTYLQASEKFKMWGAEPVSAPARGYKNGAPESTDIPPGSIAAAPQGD
Experimental: Enzymatic Assay for HSV-1 Protease (Assemblin) Inhibition
Assemblin protease activity was determined using fluorescence polarization (FP). The fluorescent substrate was biotin-gamma-aminobutyrate -[…]-DTAF, based on the HSV-1release cleavage site. […] A change in molecular size of fluorescent substrate molecule, which was increased using avidin as a reaction stop reagent, allowed cleavage to be measured by FP. Potential protease inhibitors were dissolved in DMF and then diluted 5-fold in assay buffer. […] The enzyme was diluted to 21.3 ug/mL in assay buffer (1M NaCitrate, 50 mM NaPhosphate, pH 7.4, 100mM NaCl, 20% glycerol, 2 mM TECP) and 48.5 uL were added to each well. Following a 30 minute incubation at room temperature, 10 uL of 62.5 ug/mL substrate were added. After about 90 minute incubation at room temperature, 50 uL of 2 mg/mL avidin in phosphate buffer (50 mM Naphosphate, 100 mM NaCl, pH 7.4) were added to each well. The plates were read by a fluorescence polarization plate reader. Inhibitor potency was determined by comparison with incubations lacking inhibitor.
Assays were performed with the peptide substrate H-His-Thr-Tyr-Leu-Gln-Ala-Ser-Glu-Lys-Phe-Lys-Met-Trp-Gly-NH2 (Bachem). This substrate is a HSV-1-amide UL26 Open Reading Frame (242-255) and is derived from the release site of HSV-1 protease. HSV-1protease cleaves between alanine and serine. The product […] was quantified on HPLC using fluorescence detection of tryptophan residue. Enzyme was diluted to 4.3 ug/mL in assay buffer (1 M NaCitrate, 50 mM NaPhosphate, pH 7.3, 100 mM NaCl, 20% glycerol, 2 mM TCEP) and 48.5 uL were added to the tubes. Potential protease inhibitors were dissolved in DMF and then diluted 10-fold in assay buffer. 6.5 uL of inhibitor solution were added to each tube. Following a 30-minute incubation at room temperature, 10 uL of substrate in phosphate buffer (50 mM Naphosphate, 100 mM NaCl, pH 7.4) were added to all tubes. The final concentration of the substrate in the reaction mixtures was 10 uM. After a 15-minute incubation at room temperature, assays were quenched using 50 uL of 50% TCA. Inhibitor potency was determined by comparison with incubations lacking inhibitor, which under these conditions gave about 20% cleavage of substrate.
Recombinant HSV-1 Protease
HSV-1 protease was purified from baculovirus expressing a DNA construction encoding residues 1-288 of HSV-1 UL26 open reading frame and 32 heterologous amino acid. The construction also encoded six additional histidine residues at the amino terminus of the protease. These additional histidine residues provided an affinity ligand by which the protein was purified using Ni-NTA agarose gel (Qiagen). The purified protease was stored in stock solution (20 mM HEPES buffer, pH 8.5, containing 20% (v/v) glycerol). This stock was diluted with assay buffer to adequate concentration of enzymatic assay.
A specific substrate was synthesized based on the cleavage specificity of HSV-1 protease at the “release site” of the assembly protein (DiIanni, C. L., et al., J. Biol. Chem. 268, 2048, (1993)). The assembly protein release site has the sequence, HTYLQA*SEKFKMWG. The substrate used was biotin-gamma -aminobutyrate-HTYLQA*SERFRIK-DTAF which was prepared by standard peptide synthetic methods such as that described in Bodansky and Bodansky, “The Practice of Peptide Synthesis” (1984), and was stored as a stock solution at 2.5 mg/mL in DMF. This was diluted to 62.5 ug/mL with phosphate buffer (50 mM Naphosphate, […], pH 7.4) just before use.
The substrate was HSV-1-amide UL 26 Open Reading Frame (242-255), obtained from Bachem (Product No. M-2160).
An assay buffer (1 M NaCitrate, 50 mM NaPhosphate, pH 7.4, 100 mM NaCl, 20% glycerol, 2 mM TCEP) was used to dilute stock solutions of enzyme and inhibitors.

HSV-1 = assay: Antiviral assay: plaque reduction assay, HSV-1 in vero cells; assay type: cell-based, HSV-1 (vero cells, African green monkey kidney cell); details: Human alphaherpesvirus 1, Vero, 72 h, read-out: ANTIVIRUS EC50
Description: These complimentary assays tested the ability of a compound to inhibit the production of new virus and the toxicity of the compound to the host cells. It was important that both assays be performed simultaneously in order to compare the results directly since toxicity may indirectly reduce viral replication.
The antiviral assay was estimated by plaque reduction assay performed by following methods. 1×10^5 of vero cells (African green monkey kidney cell) in 48-well plates were over-night cultured and the medium of this culture was replaced with 200 μl of 2% FBS DMEM containing 2× the desired final cordon of test compounds or no compound as control. The cultures were added 50 μl of 2% FBS DMEM containing with about 50 plaque forming units of HSV-1and next 250 μl of 2% FBS DMEM containing 1% methylcellulose. These infected cultures were incubated at 37° C., 5% CO2 for 3 days until plaques was visible. The cells were fixed and stained simultaneously with 0.025% crystalviolet in 5% formalin solution and plaque were counted. The concentration of test compound which conferred 50% inhibition of plaque formation compared to no compound control was interpolated from the observed data and defined as IC50.

[2] = molecular target: T2, Human leukocyte elastase (HLE) (Homo sapiens, UniProt P08246); assay: Human leukocyte elastase assay; assay type: biochemical; details: 50 μM compound; 30 minutes pre-incubation
T2 construct: purchased CALBIOCHEM
T2 sequence (P08246 30-267): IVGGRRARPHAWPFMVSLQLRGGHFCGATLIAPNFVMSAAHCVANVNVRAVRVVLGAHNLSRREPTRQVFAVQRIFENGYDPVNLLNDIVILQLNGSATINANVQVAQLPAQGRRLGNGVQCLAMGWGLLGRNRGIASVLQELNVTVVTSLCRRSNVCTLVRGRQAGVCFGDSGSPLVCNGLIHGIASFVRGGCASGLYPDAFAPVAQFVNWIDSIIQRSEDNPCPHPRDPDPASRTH
Experimental: Human Leukocyte Elastase Assay
Human leukocyte elastase (HLE) (CALBIOCHEM) was dissolved in saline at 1 mg/ml and further diluted 1/10 in assay buffer (0.2 M Tris, pH 8.0) before use.
0.75 μl of test compound in DMF (or DMF alone), 50 μl of assay buffer and 50 μl of enzyme were added to 96 well plate, mixed and pre-incubated for 30 minutes at ambient temperature. Reaction was initiated by addition of 50 μl of 2.5 mM methoxysuccinyl-Ala-Ala-Pro-Val-p-nitroanilide (Sigma; 25 mM in DMSO diluted 1/10 in assay buffer before use). The increase in absorbance at 405 nm was monitored for 3 min. with BIO-RAD model 3550 microplate reader.

[3] = molecular target: T3, Bovine pancreas α-chymotripsin (Bos taurus, UniProt P00766); assay: Chymotripsin assay; assay type: biochemical; details: 50 μM compound; 30 minutes pre-incubation; read-out: INHIBITION AT 50 μM CHYMOTRYPSIN (%)
T3 construct: purchased Sigma type II; host or cells: bovine pancreas
Experimental: The chymotripsin assay was modified from the method of Delmar, et al. (Anal. Biochem. 99, 316-320 (1979)). Bovine pancreas α-chymotripsin(type II, Sigma) was dissolved in 0.001 N HCl at 1 mg/ml and further diluted 1/1000 in assay buffer (0.1 M Tris, pH 7.8 containing 0.1 M CaCl2) before use. 0.75 μl of test compound in DMF (or DMF alone), 50 μl of assay buffer and 50 μl of enzyme were added to 96 wells plates, mixed and pre-incubated for 30 minutes at ambient temperature. Reaction was initiated by addition of 50 μl of 0.2 mM N-succinyl-Ala-Ala-Pro-Phe-p-nitroanilide (Sigma; 2 mM in DMSO diluted 1/10 in assay buffer before use). The increase in absorbance at 405 nm was monitored for 3 minutes with BIO-RAD model 3550 microplate-reader.

[4] = recombinant HSV-1 protease, 30 minute pre-incubation at room temperature, FP or HPLC format not stated, read-out: ENZYME IC50

Compound: Cc1c(NC(=O)OC(C)(C)C)ccc2nc(N(C)C(C)C)oc(=O)c12 [Compound 10, 6-[[(1,1-Dimethylethoxy)carbonyl]amino]-5-methyl-2-[isopropyl(methyl)amino]-4H-3,1-benzoxazin-4-one]
- IC50 [1, 4]: 7.8 µM
- EC50 (HSV-1): 3.3 µM
- inhibition at 50 µM [2]: 0%
- inhibition at 50 µM [3]: 0%

Compound: Cc1cccc2nc(N(C)CCN3CCOCC3)oc(=O)c12 [CC6, reference compound]
- IC50 [1, 4]: 11.8 µM
- EC50 (HSV-1): > 50 µM
- inhibition at 50 µM [2]: 99%
- inhibition at 50 µM [3]: 97%

Compound: Cc1c(NC(=O)OC(C)(C)C)ccc2nc(N3CCOCC3)oc(=O)c12 [Compound 6, 6-[[(1,1-Dimethylethoxy)carbonyl]amino]-5-methyl-2-(4-morpholyl)-4H-3,1-benzoxazin-4-one]
- IC50 [1, 4]: 3.7 µM
- EC50 (HSV-1): 2.9 µM
- inhibition at 50 µM [2]: 0%
- inhibition at 50 µM [3]: 0%

Compound: Cc1c(NC(=O)OC(C)(C)C)ccc2nc(N(C)CCc3c[nH]c4ccccc34)oc(=O)c12 [Compound 5, 6-[[(1-Dimethylethoxy)carbonyl]amino]-5-methyl-2-[methyl[2-(3-indolyl)ethyl]amino]-4H-3,1-benzoxazin-4-one]
- IC50 [1, 4]: 3.5 µM
- EC50 (HSV-1): 3.2 µM
- inhibition at 50 µM [2]: 0%
- inhibition at 50 µM [3]: 13.1%

Compound: CC(=O)N1CCN(c2nc3ccc(NC(=O)OC(C)(C)C)c(C)c3c(=O)o2)CC1 [Compound 16, 6-[[(1,1-Dimethylethoxy)carbonyl]amino]-5-methyl-2-[4-(1-acetylpiperadinyl)]-4H-3,1-benzoxazin-4-one]
- IC50 [1, 4]: 2.3 µM
- EC50 (HSV-1): 3.6 µM
- inhibition at 50 µM [2]: 1.4%
- inhibition at 50 µM [3]: 0%

Compound: Cc1cccc2nc(N3CCN(C)CC3)oc(=O)c12 [CC5, reference compound]
- IC50 [1]: 28 µM
- EC50 (HSV-1): > 50 µM
- inhibition at 50 µM [2]: 100%
- inhibition at 50 µM [3]: 98%

Compound: Cc1c(NC(=O)OC(C)(C)C)ccc2nc(N3CCN(C(=O)c4ccco4)CC3)oc(=O)c12 [Compound 14]
- IC50 [1, 4]: 2 µM
- EC50 (HSV-1): 1.6 µM
- inhibition at 50 µM [2]: 46.3%
- inhibition at 50 µM [3]: 0%

Compound: Cc1c(NC(=O)OC(C)(C)C)ccc2nc(N3CCN(C(=O)c4cccs4)CC3)oc(=O)c12 [Compound 17, 6-[[(1,1-Dimethylethoxy)carbonyl]amino]-5-methyl-2-[(4-thenoyl)piperzinyl]-4H-3,1-benzoxazin-4-one]
- IC50 [1, 4]: 4.2 µM
- EC50 (HSV-1): 4.1 µM
- inhibition at 50 µM [2]: 0%
- inhibition at 50 µM [3]: 0%

Compound: Cc1c(NC(=O)OC(C)(C)C)ccc2nc(N3CCN(S(=O)(=O)c4ccccc4)CC3)oc(=O)c12 [Compound 15, 6-[[(1,1-Dimethylethoxy)carbonyl]amino]-5-methyl-2-[(4-benzenesulfonyl)-piperazinyl]-4H-3,1-benzoxazin-4-one]
- IC50 [1, 4]: 1.7 µM
- EC50 (HSV-1): 2.8 µM
- inhibition at 50 µM [2]: 0%
- inhibition at 50 µM [3]: 0%

Compound: Cc1cccc2nc(N(C)Cc3ccccc3)oc(=O)c12 [CC2, reference compound]
- IC50 [1, 4]: 3.2 µM
- EC50 (HSV-1): 7.5 µM
- inhibition at 50 µM [2]: 101%
- inhibition at 50 µM [3]: 101%

Compound: COc1ccc(CN(C)c2nc3ccc(NC(=O)OC(C)(C)C)c(C)c3c(=O)o2)cc1 [Compound 3, 6-[[(1,1-Dimethylethoxy)carbonyl]amino]-5-methyl-2-[methyl[(4-methoxyphenyl)methyl]amino]4H-3,1-benzoxazin-4-one]
- IC50 [1, 4]: 0.6 µM
- EC50 (HSV-1): 0.16 µM
- inhibition at 50 µM [2]: 0%
- inhibition at 50 µM [3]: 0%

Compound: CCN(CC)c1nc2cccc(C)c2c(=O)o1 [CC1, reference compound]
- IC50 [1, 4]: 20 µM

Compound: C=CCN(C)c1nc2ccc(NC(=O)OC(C)(C)C)c(C)c2c(=O)o1 [Compound 7, 6-[[(1,1-Dimethylethoxy)carbonyl]amino]-5-methyl-2-[allyl(methyl)amino]-4H-3,1-benzoxazin-4-one]
- IC50 [1, 4]: 3.4 µM
- EC50 (HSV-1): 4.1 µM
- inhibition at 50 µM [2]: 0%
- inhibition at 50 µM [3]: 6.9%

Compound: Cc1c(NC(=O)c2ccccc2)ccc2nc(N(C)Cc3ccccc3)oc(=O)c12 [Compound 2, 6-(benzoylamino)-5-methyl-2-[methyl(phenylmethyl)amino]-4H-3,1-benzoxazin-4-one]
- IC50 [1, 4]: 0.7 µM
- EC50 (HSV-1): 4.6 µM
- inhibition at 50 µM [2]: 26%
- inhibition at 50 µM [3]: 7%

Compound: Cc1c(Br)ccc2nc(N(C)Cc3ccccc3)oc(=O)c12 [CC4, reference compound]
- EC50 (HSV-1): 15 µM
- inhibition at 50 µM [2]: 98%
- inhibition at 50 µM [3]: 102%
